# Laboratory results reported in PMC3524758, “Development and evaluation of a novel radioiodinated vesamicol analog as a sigma receptor imaging agent” (EJNMMI Research, 2012).
# Where two headings read alike, the source gives them in different places.
# Legend:
# sigma-1 receptor = target: T1, sigma-1 receptor (Rattus norvegicus, UniProt Q9R0C9); test: Sigma-1 receptor competitive binding assay ((+)-[3H]pentazocine, rat cerebral membranes)
# T1 construct: from tissue; host or cells: rat brain without cerebellum (male Sprague-Dawley rats)
# Experimental: (§1) Animal experimental protocols were approved by the Committee on Animal Experimentation of Kanazawa University. Experiments with animals were conducted in accordance with the Guidelines for the Care and Use of Laboratory Animals of Kanazawa University. The animals were housed with free access to food and water at 23°C with a 12-h alternating light/dark schedule. The rat brain and liver membranes for binding experiments were prepared from rat brains without cerebellum and rat liver in male Sprague–Dawley rats (200 g, Japan SLC, Inc., Hamamatsu, Japan), respectively, using a method described previously.
# A sigma-1 receptor binding assay was performed using the following method. […] The incubated samples were quickly diluted with 5 mL of ice-cold Tris–HCl (pH 7.8) buffer followed by rapid filtration through Whatman Grade GF/B glass fiber filters (GE Healthcare UK Ltd., Amersham, UK) presoaked in 0.5% polyethylenimine using a cell harvester (Brandel, Gaithersburg, MD, USA). Filters were washed three times with 5 mL of ice-cold buffer. […] Radioactivity retained on the filters was measured with a liquid scintillation counter (LSC-5100; Aloka, Tokyo, Japan).
# sigma-2 receptor = target: T2, sigma-2 receptor (Rattus norvegicus, UniProt Q5U3Y7); test: Sigma-2 receptor competitive binding assay ([3H]DTG, rat liver membranes, (+)-pentazocine mask)
# T2 construct: from tissue; host or cells: rat liver (male Sprague-Dawley rats)
# T2 sequence (Q5U3Y7 1-176): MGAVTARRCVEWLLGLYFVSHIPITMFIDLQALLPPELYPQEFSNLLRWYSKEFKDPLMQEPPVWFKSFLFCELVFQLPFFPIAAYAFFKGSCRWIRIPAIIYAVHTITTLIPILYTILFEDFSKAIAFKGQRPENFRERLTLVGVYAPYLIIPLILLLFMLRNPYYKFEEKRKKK
# Experimental: as §1
# A sigma-2 receptor binding assay was performed using the following method. […] The incubated samples were treated in the same manner as described for the sigma-1 receptor binding assays.
# [1] = Biodistribution in DU-145 tumor-bearing mice; assay type: in vivo; details: i.v., mean (SD)
# Experimental: (+)-^131I]pIV was prepared using a method described previously. To produce tumors, approximately 5 × 10^6 of the prepared DU-145 cells was injected subcutaneously into the right dorsum of 4-week-old male BALB/c nude mice (15 to 19 g, Japan SLC, Inc.). Biodistribution experiments were performed at approximately 14- to 21-day post-inoculation, i.e., when tumors reached a palpable size. Groups of four mice were intravenously administered with 100 μL of a mixed solution of (+)-^125I]IV-OH (37 kBq) and (+)-^131I]pIV (37 kBq). At 10-min, 1-, 3-, and 24-h post-injections, the mice were killed. Tissues of interest were removed and weighed, and radioactivity counts were determined with an auto well gamma counter and corrected for background radiation. A window from 16 to 71 keV was used for measuring ^125I and one from 300 to 433 keV for ^131I. The crossover of ^125I activity into the ^131I channel was negligible. Correlation factors to eliminate any crossover of ^131I activity into ^125I were determined by measuring the ^131I standard in both windows.
# sigma receptors = test: Blocking studies with excess sigma ligand in DU-145 tumor-bearing mice; assay type: in vivo; details: 10 μmol/kg i.v. co-injection, 1-h post-injection
# Experimental: At 1-h post-injection, the mice were killed, and biodistribution experiments were conducted as described above.
# [2] = rat cerebral membranes, 5-nM (+)-[3H]pentazocine, Ki from IC50, means (SEM) of three or four experiments
# [3] = rat liver membranes, 5-nM [3H]DTG, 1-μM (+)-pentazocine mask, Ki from IC50, means (SEM) of three or four experiments
# T1 sequence (Q9R0C9 whole entry): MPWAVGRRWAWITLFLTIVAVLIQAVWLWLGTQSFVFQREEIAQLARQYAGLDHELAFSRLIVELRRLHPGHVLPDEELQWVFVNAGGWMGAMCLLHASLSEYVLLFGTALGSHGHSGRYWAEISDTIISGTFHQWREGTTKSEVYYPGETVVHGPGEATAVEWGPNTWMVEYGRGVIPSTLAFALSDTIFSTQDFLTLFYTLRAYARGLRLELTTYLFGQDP
molecule,measurement,setting,value
"Oc1ccc(C2CCN(C3CCCCC3O)CC2)cc1 (single isomer, unassigned; (+)) [(+)-Ves-OH]",Ki,sigma-1 receptor; [2],179 nM
same,Ki,sigma-2 receptor; [3],97.2 nM
"OC1CCCCC1N1CCC(c2ccc([131I])cc2)CC1 (single isomer, unassigned; (+)) [(+)-[^131I]pIV, reference compound]","Biodistribution of radioactivity, Blood",[1]; 10 min post-injection,0.45 (0.03) percent injected dose per gram tissue
same,"Biodistribution of radioactivity, Blood",[1]; 1 h post-injection,0.28 (0.02) percent injected dose per gram tissue
same,"Biodistribution of radioactivity, Blood",[1]; 3 h post-injection,0.17 (0.01) percent injected dose per gram tissue
same,"Biodistribution of radioactivity, Brain",[1]; 10 min post-injection,6.02 (0.74) percent injected dose per gram tissue
same,"Biodistribution of radioactivity, Brain",[1]; 1 h post-injection,6.47 (0.73) percent injected dose per gram tissue
same,"Biodistribution of radioactivity, Brain",[1]; 3 h post-injection,4.12 (0.30) percent injected dose per gram tissue
same,"Biodistribution of radioactivity, Brain",[1]; 24 h post-injection,2.22 (0.10) percent injected dose per gram tissue
same,"Biodistribution of radioactivity, Heart",[1]; 10 min post-injection,8.66 (0.81) percent injected dose per gram tissue
same,"Biodistribution of radioactivity, Heart",[1]; 1 h post-injection,5.55 (0.70) percent injected dose per gram tissue
same,"Biodistribution of radioactivity, Heart",[1]; 3 h post-injection,2.11 (0.37) percent injected dose per gram tissue
same,"Biodistribution of radioactivity, Heart",[1]; 24 h post-injection,0.96 (0.07) percent injected dose per gram tissue
same,"Biodistribution of radioactivity, Intestine",[1]; 10 min post-injection,4.31 (0.78) percent injected dose per gram tissue
same,"Biodistribution of radioactivity, Intestine",[1]; 1 h post-injection,5.14 (0.12) percent injected dose per gram tissue
same,"Biodistribution of radioactivity, Intestine",[1]; 3 h post-injection,3.20 (0.13) percent injected dose per gram tissue
same,"Biodistribution of radioactivity, Intestine",[1]; 24 h post-injection,2.59 (0.24) percent injected dose per gram tissue
same,"Biodistribution of radioactivity, Kidney",[1]; 10 min post-injection,18.47 (1.59) percent injected dose per gram tissue
same,"Biodistribution of radioactivity, Kidney",[1]; 1 h post-injection,11.72 (1.90) percent injected dose per gram tissue
same,"Biodistribution of radioactivity, Kidney",[1]; 3 h post-injection,7.37 (0.89) percent injected dose per gram tissue
same,"Biodistribution of radioactivity, Kidney",[1]; 24 h post-injection,6.15 (0.30) percent injected dose per gram tissue
same,"Biodistribution of radioactivity, Liver",[1]; 10 min post-injection,9.83 (0.39) percent injected dose per gram tissue
same,"Biodistribution of radioactivity, Liver",[1]; 1 h post-injection,13.31 (1.25) percent injected dose per gram tissue
same,"Biodistribution of radioactivity, Liver",[1]; 3 h post-injection,13.05 (0.46) percent injected dose per gram tissue
same,"Biodistribution of radioactivity, Liver",[1]; 24 h post-injection,10.28 (0.59) percent injected dose per gram tissue
same,"Biodistribution of radioactivity, Lung",[1]; 10 min post-injection,26.10 (3.39) percent injected dose per gram tissue
same,"Biodistribution of radioactivity, Lung",[1]; 1 h post-injection,13.13 (3.28) percent injected dose per gram tissue
same,"Biodistribution of radioactivity, Lung",[1]; 3 h post-injection,6.59 (0.56) percent injected dose per gram tissue
same,"Biodistribution of radioactivity, Lung",[1]; 24 h post-injection,3.01 (0.46) percent injected dose per gram tissue
same,"Biodistribution of radioactivity, Muscle",[1]; 10 min post-injection,2.03 (0.53) percent injected dose per gram tissue
same,"Biodistribution of radioactivity, Muscle",[1]; 1 h post-injection,1.62 (0.22) percent injected dose per gram tissue
same,"Biodistribution of radioactivity, Muscle",[1]; 3 h post-injection,0.72 (0.29) percent injected dose per gram tissue
same,"Biodistribution of radioactivity, Muscle",[1]; 24 h post-injection,0.42 (0.03) percent injected dose per gram tissue
same,"Biodistribution of radioactivity, Pancreas",[1]; 10 min post-injection,16.58 (1.82) percent injected dose per gram tissue
same,"Biodistribution of radioactivity, Pancreas",[1]; 1 h post-injection,21.94 (2.50) percent injected dose per gram tissue
same,"Biodistribution of radioactivity, Pancreas",[1]; 3 h post-injection,27.35 (0.24) percent injected dose per gram tissue
same,"Biodistribution of radioactivity, Pancreas",[1]; 24 h post-injection,27.36 (0.70) percent injected dose per gram tissue
same,"Biodistribution of radioactivity, Spleen",[1]; 10 min post-injection,8.12 (1.09) percent injected dose per gram tissue
same,"Biodistribution of radioactivity, Spleen",[1]; 1 h post-injection,8.99 (1.00) percent injected dose per gram tissue
same,"Biodistribution of radioactivity, Spleen",[1]; 3 h post-injection,4.04 (0.30) percent injected dose per gram tissue
same,"Biodistribution of radioactivity, Spleen",[1]; 24 h post-injection,2.52 (0.23) percent injected dose per gram tissue
same,"Biodistribution of radioactivity, Stomach",[1]; 10 min post-injection,1.07 (0.32) percent injected dose
same,"Biodistribution of radioactivity, Stomach",[1]; 1 h post-injection,0.73 (0.26) percent injected dose
same,"Biodistribution of radioactivity, Stomach",[1]; 3 h post-injection,0.62 (0.19) percent injected dose
same,"Biodistribution of radioactivity, Stomach",[1]; 24 h post-injection,0.49 (0.06) percent injected dose
same,"Biodistribution of radioactivity, Tumor",[1]; 10 min post-injection,7.20 (0.40) percent injected dose per gram tissue
same,"Biodistribution of radioactivity, Tumor",[1]; 1 h post-injection,5.79 (0.37) percent injected dose per gram tissue
same,"Biodistribution of radioactivity, Tumor",[1]; 3 h post-injection,6.46 (3.42) percent injected dose per gram tissue
same,"Biodistribution of radioactivity, Tumor",[1]; 24 h post-injection,6.81 (2.60) percent injected dose per gram tissue
"Oc1ccc(C2CCN(C3CCCC[C@H]3O)CC2)cc1I (single isomer, unassigned; (+)) [(+)-IV-OH, (+)-4-[1-(2-hydroxycyclohexyl)piperidine-4-yl]-2-iodophenol]",Ki,sigma-1 receptor,22.8 nM
same,selectivity for sigma-1 subtype over sigma-2,sigma-1 receptor; in vitro binding assay,approximately 6.4 fold
same,Ki,sigma-2 receptor,147 nM
COc1ccc(CCN2CCN(CCCc3ccccc3)CC2)cc1OC [SA4503],effect of co-injected ligand on brain to blood uptake ratio of (+)-[^125I]IV-OH,sigma receptors,significant decrease
same,effect of co-injected ligand on liver uptake of (+)-[^125I]IV-OH,sigma receptors,did not inhibit
same,effect of co-injected ligand on pancreas to blood uptake ratio of (+)-[^125I]IV-OH,sigma receptors,significant decrease
same,effect of co-injected ligand on tumor to blood uptake ratio of (+)-[^125I]IV-OH,sigma receptors,significant decrease
"Oc1ccc(C2CCN(C3CCCCC3O)CC2)cc1I (single isomer, unassigned; (-)) [(−)-IV-OH, (−)-enantiomer of 4-[1-(2-hydroxycyclohexyl)piperidine-4-yl]-2-iodophenol]",Ki,sigma-1 receptor; [2],45.5 nM
same,Ki,sigma-2 receptor; [3],166 nM
(+)-Vesamicol [reference compound],Ki,sigma-2 receptor; [3],159 nM
